In patent publication US11242337B2, “Compounds useful for treating gastrointestinal tract disorders” (Ardelyx, Inc., priority 2017, dated 2022):

These molecules were tested against T1, NHE3 (Homo sapiens, UniProt P48764) (assay: Cell-based assay of NHE-3 activity (persistent inhibition), human). Details: human Persistence, 60 min incubation then washout.
T1 construct: expressed in transfected cells
T1 sequence (P48764 26-834): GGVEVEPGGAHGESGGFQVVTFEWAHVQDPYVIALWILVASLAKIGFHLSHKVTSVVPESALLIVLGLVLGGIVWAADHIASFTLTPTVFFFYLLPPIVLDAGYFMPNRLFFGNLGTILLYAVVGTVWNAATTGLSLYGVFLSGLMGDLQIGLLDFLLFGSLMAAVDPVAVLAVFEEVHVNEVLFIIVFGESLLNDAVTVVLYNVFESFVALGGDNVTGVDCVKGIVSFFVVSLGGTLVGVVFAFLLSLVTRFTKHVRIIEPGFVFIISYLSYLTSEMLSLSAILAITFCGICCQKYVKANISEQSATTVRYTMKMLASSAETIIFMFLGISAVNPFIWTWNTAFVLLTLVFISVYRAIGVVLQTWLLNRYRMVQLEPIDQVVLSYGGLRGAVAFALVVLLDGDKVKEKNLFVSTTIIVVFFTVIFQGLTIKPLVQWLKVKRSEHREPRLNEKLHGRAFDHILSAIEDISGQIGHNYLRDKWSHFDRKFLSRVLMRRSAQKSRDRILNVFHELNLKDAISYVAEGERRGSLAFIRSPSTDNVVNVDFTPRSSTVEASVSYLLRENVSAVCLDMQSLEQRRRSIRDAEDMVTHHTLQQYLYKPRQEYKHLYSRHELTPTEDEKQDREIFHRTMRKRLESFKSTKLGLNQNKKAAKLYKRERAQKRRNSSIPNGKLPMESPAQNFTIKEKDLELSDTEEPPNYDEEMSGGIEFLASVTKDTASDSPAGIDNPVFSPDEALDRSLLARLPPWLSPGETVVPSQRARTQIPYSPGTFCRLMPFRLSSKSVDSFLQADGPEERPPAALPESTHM
T1 sequence (Q99653 2-195 partner limits assumed): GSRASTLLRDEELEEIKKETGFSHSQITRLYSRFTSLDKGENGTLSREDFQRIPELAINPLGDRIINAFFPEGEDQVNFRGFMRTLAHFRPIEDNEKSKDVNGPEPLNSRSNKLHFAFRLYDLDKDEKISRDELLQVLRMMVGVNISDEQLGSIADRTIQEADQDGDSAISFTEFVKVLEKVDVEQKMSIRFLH
How it was run: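 PS120 fibroblasts expressing human NHE3 with NHERF2 exposed to 0-30 μM compound for 60 min at RT, then washed out; cells acid-loaded by NH4Cl prepulse with BCECF-AM and Na+-free buffer. Na+-driven pH recovery started 10 min post-washout; initial rate of BCECF ratio change (FLIPR) taken as activity.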

| % inhibition | pIC50 | IC50 [nM] | Molecule |
| --- | --- | --- | --- |
| C (>70%) | C (NHE3 pIC50 > 7) |  | Cc1cc(S(=O)(=O)NCCOCCOCCNC(=O)NCCCCNC(=O)NCCOCCOCCNS(=O)(=O)c2ccc(O[C@H]3c4cc(Cl)cc(C)c4C[C@@H]3N3CCC[C@@H](N(C)C)C3)c(C)c2)ccc1O[C@H]1c2cc(Cl)cc(C)c2C[C@@H]1N1CCC[C@@H](N(C)C)C1 [Example 29] |
| C (>70%) | C (NHE3 pIC50 > 7) |  | N#Cc1cc(Cl)cc2c1C[C@H](N1CCNCC1)[C@H]2Oc1ccc(S(=O)(=O)NC2CCN(CCOCCNC(=O)NCCCCNC(=O)NCCOCCN3CCC(NS(=O)(=O)c4ccc(O[C@H]5c6cc(Cl)cc(C#N)c6C[C@@H]5N5CCNCC5)cc4)CC3)CC2)cc1 [Example 123, 4-([(1S,2S)-6-Chloro-4-cyano-2-(piperazin-1-yl)-2,3-dihydro-1H-inden-1-yl]oxy)-N-[1-(20-[4-([4-([(1S,2S)-6-chloro-4-cyano-2-(piperazin-1-yl)-2,3-dihydro-1H-inden-1-yl]oxy)phenyl]sulfonamide]piperidin-1-yl)-7,14-dioxo-3,18-dioxa-6,8,13,15-tetraazaicosyl]piperidin-4-yl)benzenesulfonamide] |
| C (>70%) |  |  | Cc1cc(Cl)cc2c1C[C@H](N(C)C)[C@H]2Oc1ccc(S(=O)(=O)NCCOCCOCCNC(=O)NCCCCNC(=O)NCCOCCOCCNS(=O)(=O)c2ccc(O[C@H]3c4cc(Cl)cc(C)c4C[C@@H]3N(C)C)c(F)c2)cc1F [Example 24, 3-[2-(2-[2-[(4-[[(1S,2S)-6-Chloro-2-(dimethylamino)-4-methyl-2,3-dihydro-1H-inden-1-yl]oxy]-3-fluorobenzene)sulfonamido]ethoxy]ethoxy)ethyl]-1-[4-([[2-(2-[2-[(4-[[(1S,2S)-6-chloro-2-(dimethylamino)-4-methyl-2,3-dihydro-1H-inden-1-yl]oxy]-3-fluorobenzene)sulfonamido]ethoxy]ethoxy)ethyl]carbamoyl]amino)butyl]urea] |
| C (>70%) | C (NHE3 pIC50 > 7) |  | Cc1cc(S(=O)(=O)N2CC[C@@H](COc3ccnc(CNC(=O)NCCCCNC(=O)NCc4cc(OC[C@@H]5CCN(S(=O)(=O)c6ccc(O[C@H]7c8cc(Cl)cc(Cl)c8C[C@@H]7N(C)C)c(C)c6)C5)ccn4)c3)C2)ccc1O[C@H]1c2cc(Cl)cc(Cl)c2C[C@@H]1N(C)C [Example 49, 3-[(4-[[(3R)-1-[(4-[[(1S,2S)-4,6-Dichloro-2-(dimethylamino)-2,3-dihydro-1H-inden-1-yl]oxy]-3-methylbenzene)sulfonyl]pyrrolidin-3-yl]methoxy]pyridin-2-yl)methyl]-1-[4-([[(4-[[(3R)-1-[(4-[[(1S,2S)-4,6-dichloro-2-(dimethylamino)-2,3-dihydro-1H-inden-1-yl]oxy]-3-methylbenzene)sulfonyl]pyrrolidin-3-yl]methoxy]pyridin-2-yl)methyl]carbamoyl]amino)butyl]urea] |
| C (>70%) | C (NHE3 pIC50 > 7) |  | Cc1cc(Cl)cc2c1C[C@H](N1CCC[C@@H](N(C)C)C1)[C@H]2Oc1ccc(S(=O)(=O)NCCOCCOCCNC(=O)NCCCCNC(=O)NCCOCCOCCNS(=O)(=O)c2ccc(O[C@H]3c4cc(Cl)cc(C)c4C[C@@H]3N3CCC[C@@H](N(C)C)C3)c(F)c2)cc1F [Example 30, 3-[2-(2-[2-[(4-[[(1S,2S)-6-Chloro-2-[(3R)-3-(dimethylamino)piperidin-1-yl]-4-methyl-2,3-dihydro-1H-inden-1-yl]oxy]-3-fluorobenzene)sulfonamido]ethoxy]ethoxy)ethyl]-1-[4-([[2-(2-[2-[(4-[[(1S,2S)-6-chloro-2-[(3R)-3-(dimethylamino)piperidin-1-yl]-4-methyl-2,3-dihydro-1H-inden-1-yl]oxy]-3-fluorobenzene)sulfonamido]ethoxy]ethoxy)ethyl]carbamoyl]amino)butyl]urea; bis(trifluoroacetic acid)] |
| C (>70%) |  |  | Cc1cc(S(=O)(=O)N[C@@H]2CCN(CCOCCNC(=O)NCCCCNC(=O)NCCOCCN3CC[C@@H](NS(=O)(=O)c4ccc(O[C@H]5c6cc(Cl)cc(C#N)c6C[C@@H]5N(C)C)c(C)c4)C3)C2)ccc1O[C@H]1c2cc(Cl)cc(C#N)c2C[C@@H]1N(C)C [Example 55, 3-(2-[2-[(3R)-3-[(4-[[(1S,2S)-6-Chloro-4-cyano-2-(dimethylamino)-2,3-dihydro-1H-inden-1-yl]oxy]-3-methylbenzene)sulfonamido]pyrrolidin-1-yl]ethoxy]ethyl)-1-(4-[[(2-[2-[(3R)-3-[(4-[[(1S,2S)-6-chloro-4-cyano-2-(dimethylamino)-2,3-dihydro-1H-inden-1-yl]oxy]-3-methylbenzene)sulfonamido]pyrrolidin-1-yl]ethoxy]ethyl)carbamoyl]amino]butyl)urea] |
| C (>70%) |  | < 100 | O=C(NCCCCNC(=O)NCCOCCN1CC[C@@H](NS(=O)(=O)c2ccc(O[C@H]3c4cc(Cl)cc(Cl)c4C[C@@H]3N3CCNCC3)c(F)c2)C1)NCCOCCN1CC[C@@H](NS(=O)(=O)c2ccc(O[C@H]3c4cc(Cl)cc(Cl)c4C[C@@H]3N3CCNCC3)c(F)c2)C1 [Example 105, 4-([(1S,2S)-4,6-Dichloro-2-(piperazin-1-yl)-2,3-dihydro-1H-inden-1-yl]oxy)-N—[(R)-1-(20-[(R)-3-([4-([(1S2S)-4,6-dichloro-2-(piperazin-1-yl)-2,3-dihydro-1H-inden-1-yl]oxy)-3-fluorophenyl]sulfonamido)pyrrolidin-1-yl]-7,14-dioxo-3,18-dioxa-6,8,13,15-tetraazaicosyl)pyrrolidin-3-yl]-3-fluorobenzenesulfonamide; tetra(trifluoroacetate)] |
| B (40-70%) |  | < 100 | N#Cc1cc(Cl)cc2c1C[C@H](N1CCCNCC1)[C@H]2Oc1ccc(S(=O)(=O)N[C@H]2CCN(CCOCCNC(=O)NCCCCNC(=O)NCCOCCN3CC[C@H](NS(=O)(=O)c4ccc(O[C@H]5c6cc(Cl)cc(C#N)c6C[C@@H]5N5CCCNCC5)cc4)C3)C2)cc1 [Example 126, 4-([(1S,2S)-6-Chloro-4-cyano-2-(1,4-diazepan-1-yl)-2,3-dihydro-1H-inden-1-yl]oxy)-N—[(S)-1-(20-[(S)-3-([4-([(1S,2S)-6-chloro-4-cyano-2-(1,4-diazepan-1-yl)-2,3-dihydro-1H-inden-1-yl]oxy)phenyl]sulfonamido)pyrrolidin-1-yl]-7,14-dioxo-3,18-dioxa-6,8,13,15-tetraazaicosyl)pyrrolidin-3-yl]benzenesulfonamide] |
| C (>70%) | C (NHE3 pIC50 > 7) |  | Cc1cc(S(=O)(=O)NCCOCCOCCNC(=O)NCCCCNC(=O)NCCOCCOCCNS(=O)(=O)c2ccc(O[C@H]3c4cc(Cl)cc(C)c4C[C@@H]3N3CCNCC3)c(C)c2)ccc1O[C@H]1c2cc(Cl)cc(C)c2C[C@@H]1N1CCNCC1 [Example 35, 3-[2-(2-[2-[(4-[[(1S,2S)-6-Chloro-4-methyl-2-(piperazin-1-yl)-2,3-dihydro-1H-inden-1-yl]oxy]-3-methylbenzene)sulfonamido]ethoxy]ethoxy)ethyl]-1-[4-([[2-(2-[2-[(4-[[(1S,2S)-6-chloro-4-methyl-2-(piperazin-1-yl)-2,3-dihydro-1H-inden-1-yl]oxy]-3-methylbenzene)sulfonamido]ethoxy]ethoxy)ethyl]carbamoyl]amino)butyl]urea; bis(trifluoroacetic acid)] |
| C (>70%) | C (NHE3 pIC50 > 7) |  | Cc1cc(S(=O)(=O)NCCOCCOCCNC(=O)NCCCCNC(=O)NCCOCCOCCNS(=O)(=O)c2ccc(O[C@H]3c4cc(Cl)cc(C)c4C[C@@H]3N(C)C)c(C)c2)ccc1O[C@H]1c2cc(Cl)cc(C)c2C[C@@H]1N(C)C [Example 17, 3-[2-(2-[2-[(4-[[(1S,2S)-6-Chloro-2-(dimethylamino)-4-methyl-2,3-dihydro-1H-inden-1-yl]oxy]-3-methylbenzene)sulfonamido]ethoxy]ethoxy)ethyl]-1-[4-([[2-(2-[2-[(4-[[(1S,2S)-6-chloro-2-(dimethylamino)-4-methyl-2,3-dihydro-1H-inden-1-yl]oxy]-3-methylbenzene)sulfonamido]ethoxy]ethoxy)ethyl]carbamoyl]amino)butyl]urea] |

| Molecule | % inhibition | pIC50 | IC50 [nM] |
| --- | --- | --- | --- |
| 3-[2-(2-[2-[(4-[[(1S,2S)-4,6-Dichloro-2-[(3R)-3-[methyl(propan-2-yl)amino]piperidin-1-yl]-2,3-dihydro-1H-inden-1-yl]oxy]benzene) sulfonamido]ethoxy]ethoxy)ethyl]-1-[4-([[2-(2-[2-[(4-[[(1S,2S)-4,6-dichloro-2-[(3R)-3-[methyl(propan-2-yl)amino]piperidin-1-yl]-2,3-dihydro-1H-inden-1-yl]oxy]benzene)sulfonamido]ethoxy]ethoxy)ethyl]carbamoyl]amino)butyl]urea; bis(trifluoroacetic acid) [Example 78] | C (>70%) |  |  |
